{"source": "paper PMC4458377", "about": "(Biochemistry, 2014)", "key": {"BAZ2B bromodomain [1]": {"target": "T1, BAZ2B bromodomain (Homo sapiens, UniProt Q9UIF8)", "T1 sequence (Q9UIF8 1868-1972 isoform Q9UIF8-4)": "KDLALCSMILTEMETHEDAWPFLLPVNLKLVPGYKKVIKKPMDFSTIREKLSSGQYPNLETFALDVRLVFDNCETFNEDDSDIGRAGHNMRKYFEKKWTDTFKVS", "assay": "ITC of H3K14ac peptides binding to BAZ2B bromodomain"}, "BAZ2B bromodomain [2]": {"target": "T1, BAZ2B bromodomain", "conditions": "acetylated lysine alone; cited from earlier work"}}, "data": [{"compound": "CC(=O)NCCCC[C@H](NC(=O)CNC(=O)CNC(=O)[C@@H](NC(=O)[C@H](CO)NC(=O)[C@H](CCCCN)NC(C)=O)[C@@H](C)O)C(=O)N[C@@H](C)C(=O)N1CCC[C@H]1C(=O)N[C@@H](CCCNC(=N)N)C(=O)N[C@@H](CCCCN)C(=O)N[C@@H](CCC(N)=O)C(N)=O", "note": "[Peptide 3]", "values": [{"measurement": "Kd", "setting": "BAZ2B bromodomain [1]", "value": "15.7 ± 1.1", "unit": "µM"}]}, {"compound": "Ac-KSTGGK(Ac)APRK-NH2 [Peptide 4]", "values": [{"measurement": "Kd", "setting": "BAZ2B bromodomain [1]", "value": "21.8 ± 1.4", "unit": "µM"}]}, {"compound": "CC(=O)NCCCC[C@H](N)C(=O)O", "note": "[Acetylated lysine, N-ε-acetyl lysine]", "values": [{"measurement": "interaction with BAZ2B bromodomain", "setting": "BAZ2B bromodomain [2]", "value": "interact only very weakly"}]}, {"compound": "CC(=O)NCCCC[C@H](NC(=O)CNC(=O)CNC(=O)[C@@H](NC(=O)[C@H](CO)NC(C)=O)[C@@H](C)O)C(=O)N[C@@H](C)C(=O)N1CCC[C@H]1C(=O)N[C@@H](CCCNC(=N)N)C(=O)N[C@@H](CCCCN)C(N)=O", "note": "[Peptide 1]", "values": [{"measurement": "Kd", "setting": "BAZ2B bromodomain [1]", "value": "45 ± 3.3", "unit": "µM"}, {"measurement": "reduction in affinity relative to Peptide 4", "setting": "BAZ2B bromodomain [1]; ITC KD ratio", "value": 2, "unit": "fold"}]}]}
